# Measurements reported in ChEMBL document CHEMBL1201862, “PubChem BioAssay data set” (2004).
# The source made the active and inactive calls.
# Experiments:
# [1] = target: T1, Tyrosine-protein phosphatase non-receptor type 22 (Homo sapiens, UniProt Q9Y2R2); format: functional
# T1 sequence (Q9Y2R2 whole entry): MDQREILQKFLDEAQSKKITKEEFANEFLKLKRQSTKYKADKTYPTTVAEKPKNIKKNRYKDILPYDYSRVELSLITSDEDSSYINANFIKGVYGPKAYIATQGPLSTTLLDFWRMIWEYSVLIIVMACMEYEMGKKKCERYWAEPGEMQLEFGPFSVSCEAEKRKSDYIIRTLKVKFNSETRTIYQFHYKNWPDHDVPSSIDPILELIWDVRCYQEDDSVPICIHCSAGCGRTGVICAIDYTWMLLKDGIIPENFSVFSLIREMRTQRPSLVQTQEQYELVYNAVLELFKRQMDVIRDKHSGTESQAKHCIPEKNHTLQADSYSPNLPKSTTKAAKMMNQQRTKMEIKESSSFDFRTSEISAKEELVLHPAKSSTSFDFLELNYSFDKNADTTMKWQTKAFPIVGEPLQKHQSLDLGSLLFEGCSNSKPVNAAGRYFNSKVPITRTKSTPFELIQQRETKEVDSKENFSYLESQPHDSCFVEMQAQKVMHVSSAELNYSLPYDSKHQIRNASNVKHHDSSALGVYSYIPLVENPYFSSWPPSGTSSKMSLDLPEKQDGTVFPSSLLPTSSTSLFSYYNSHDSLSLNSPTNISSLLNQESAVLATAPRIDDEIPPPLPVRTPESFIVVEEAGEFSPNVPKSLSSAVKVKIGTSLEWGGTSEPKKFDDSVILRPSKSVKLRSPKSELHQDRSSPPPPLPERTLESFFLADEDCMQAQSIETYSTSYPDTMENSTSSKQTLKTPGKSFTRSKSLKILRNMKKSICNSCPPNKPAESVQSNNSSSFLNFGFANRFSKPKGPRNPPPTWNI
# [2] = target: T2, Tyrosine-protein phosphatase non-receptor type 7 (Homo sapiens, UniProt P35236); format: functional
# T2 sequence (P35236 whole entry): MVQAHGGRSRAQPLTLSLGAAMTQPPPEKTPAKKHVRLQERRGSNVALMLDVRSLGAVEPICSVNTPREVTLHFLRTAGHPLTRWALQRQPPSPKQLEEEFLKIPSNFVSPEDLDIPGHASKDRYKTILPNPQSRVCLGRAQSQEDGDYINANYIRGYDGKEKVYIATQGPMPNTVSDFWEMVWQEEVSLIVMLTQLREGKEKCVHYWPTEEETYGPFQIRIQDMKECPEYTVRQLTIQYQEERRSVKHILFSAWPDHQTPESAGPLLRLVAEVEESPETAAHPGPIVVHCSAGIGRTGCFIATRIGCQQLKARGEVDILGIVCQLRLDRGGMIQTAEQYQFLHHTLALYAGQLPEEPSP
# [3] = target: T1, Tyrosine-protein phosphatase non-receptor type 22; format: functional; remark: listed apart in the source
# [4] = target: Eukaryotic translation initiation factor 4E (Mus musculus, UniProt P63073); assay: blockers of eIF4G binding by eIF4E – biochemical, TR-FRET, dose response (AID 855); format: functional;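 also: potency for disrupting eIF4E binding to eIF4GI seen as loss of FRET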
# Sequence of Eukaryotic translation initiation factor 4E (P63073 whole entry): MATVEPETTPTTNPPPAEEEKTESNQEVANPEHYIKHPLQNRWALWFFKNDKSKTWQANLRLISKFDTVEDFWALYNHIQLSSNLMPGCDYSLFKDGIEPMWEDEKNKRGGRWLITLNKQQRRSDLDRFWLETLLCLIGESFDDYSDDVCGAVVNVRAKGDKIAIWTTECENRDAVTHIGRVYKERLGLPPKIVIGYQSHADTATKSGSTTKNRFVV
# [5] = target: T3, Short transient receptor potential channel 4 (Mus musculus, UniProt Q9QUQ5); assay: block of DAMGO-driven TRPC4 calcium entry – cell-based, HEK293 TRPC4/mu-opioid, Fluo-4 calcium, dose response (AID 434942); format: functional;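 also: potency of inhibitors blocking the TRPC4 calcium response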
# T3 sequence (Q9QUQ5 whole entry): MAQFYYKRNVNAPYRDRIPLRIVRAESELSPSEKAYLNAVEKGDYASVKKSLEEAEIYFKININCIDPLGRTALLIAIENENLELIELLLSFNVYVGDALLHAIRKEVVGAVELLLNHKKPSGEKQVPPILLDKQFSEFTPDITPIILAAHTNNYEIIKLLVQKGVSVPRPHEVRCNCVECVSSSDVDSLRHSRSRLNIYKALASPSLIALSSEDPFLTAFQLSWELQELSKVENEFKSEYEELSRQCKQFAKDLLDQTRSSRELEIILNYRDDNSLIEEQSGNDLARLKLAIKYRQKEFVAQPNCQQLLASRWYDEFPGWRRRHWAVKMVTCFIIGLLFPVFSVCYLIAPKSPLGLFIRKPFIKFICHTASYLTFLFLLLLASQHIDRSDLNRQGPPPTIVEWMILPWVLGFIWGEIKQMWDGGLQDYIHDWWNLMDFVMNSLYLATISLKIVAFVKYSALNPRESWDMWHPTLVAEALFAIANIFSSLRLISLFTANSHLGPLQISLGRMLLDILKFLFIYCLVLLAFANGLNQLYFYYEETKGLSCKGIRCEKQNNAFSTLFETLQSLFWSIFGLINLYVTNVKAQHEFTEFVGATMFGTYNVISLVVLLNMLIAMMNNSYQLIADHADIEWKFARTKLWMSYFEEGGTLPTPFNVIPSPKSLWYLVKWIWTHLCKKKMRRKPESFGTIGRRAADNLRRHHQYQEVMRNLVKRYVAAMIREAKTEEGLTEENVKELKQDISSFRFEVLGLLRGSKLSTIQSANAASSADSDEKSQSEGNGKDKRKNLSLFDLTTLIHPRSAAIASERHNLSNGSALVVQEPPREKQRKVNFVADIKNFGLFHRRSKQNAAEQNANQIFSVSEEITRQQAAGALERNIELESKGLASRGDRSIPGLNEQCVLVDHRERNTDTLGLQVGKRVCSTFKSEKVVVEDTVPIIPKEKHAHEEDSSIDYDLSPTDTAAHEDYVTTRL
# [6] = target: Voltage-dependent T-type calcium channel subunit alpha-1H (Homo sapiens, UniProt O95180); format: functional;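 also: channel activity triggered by adding a high calcium stimulation buffer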
# Sequence of Voltage-dependent T-type calcium channel subunit alpha-1H (O95180 whole entry): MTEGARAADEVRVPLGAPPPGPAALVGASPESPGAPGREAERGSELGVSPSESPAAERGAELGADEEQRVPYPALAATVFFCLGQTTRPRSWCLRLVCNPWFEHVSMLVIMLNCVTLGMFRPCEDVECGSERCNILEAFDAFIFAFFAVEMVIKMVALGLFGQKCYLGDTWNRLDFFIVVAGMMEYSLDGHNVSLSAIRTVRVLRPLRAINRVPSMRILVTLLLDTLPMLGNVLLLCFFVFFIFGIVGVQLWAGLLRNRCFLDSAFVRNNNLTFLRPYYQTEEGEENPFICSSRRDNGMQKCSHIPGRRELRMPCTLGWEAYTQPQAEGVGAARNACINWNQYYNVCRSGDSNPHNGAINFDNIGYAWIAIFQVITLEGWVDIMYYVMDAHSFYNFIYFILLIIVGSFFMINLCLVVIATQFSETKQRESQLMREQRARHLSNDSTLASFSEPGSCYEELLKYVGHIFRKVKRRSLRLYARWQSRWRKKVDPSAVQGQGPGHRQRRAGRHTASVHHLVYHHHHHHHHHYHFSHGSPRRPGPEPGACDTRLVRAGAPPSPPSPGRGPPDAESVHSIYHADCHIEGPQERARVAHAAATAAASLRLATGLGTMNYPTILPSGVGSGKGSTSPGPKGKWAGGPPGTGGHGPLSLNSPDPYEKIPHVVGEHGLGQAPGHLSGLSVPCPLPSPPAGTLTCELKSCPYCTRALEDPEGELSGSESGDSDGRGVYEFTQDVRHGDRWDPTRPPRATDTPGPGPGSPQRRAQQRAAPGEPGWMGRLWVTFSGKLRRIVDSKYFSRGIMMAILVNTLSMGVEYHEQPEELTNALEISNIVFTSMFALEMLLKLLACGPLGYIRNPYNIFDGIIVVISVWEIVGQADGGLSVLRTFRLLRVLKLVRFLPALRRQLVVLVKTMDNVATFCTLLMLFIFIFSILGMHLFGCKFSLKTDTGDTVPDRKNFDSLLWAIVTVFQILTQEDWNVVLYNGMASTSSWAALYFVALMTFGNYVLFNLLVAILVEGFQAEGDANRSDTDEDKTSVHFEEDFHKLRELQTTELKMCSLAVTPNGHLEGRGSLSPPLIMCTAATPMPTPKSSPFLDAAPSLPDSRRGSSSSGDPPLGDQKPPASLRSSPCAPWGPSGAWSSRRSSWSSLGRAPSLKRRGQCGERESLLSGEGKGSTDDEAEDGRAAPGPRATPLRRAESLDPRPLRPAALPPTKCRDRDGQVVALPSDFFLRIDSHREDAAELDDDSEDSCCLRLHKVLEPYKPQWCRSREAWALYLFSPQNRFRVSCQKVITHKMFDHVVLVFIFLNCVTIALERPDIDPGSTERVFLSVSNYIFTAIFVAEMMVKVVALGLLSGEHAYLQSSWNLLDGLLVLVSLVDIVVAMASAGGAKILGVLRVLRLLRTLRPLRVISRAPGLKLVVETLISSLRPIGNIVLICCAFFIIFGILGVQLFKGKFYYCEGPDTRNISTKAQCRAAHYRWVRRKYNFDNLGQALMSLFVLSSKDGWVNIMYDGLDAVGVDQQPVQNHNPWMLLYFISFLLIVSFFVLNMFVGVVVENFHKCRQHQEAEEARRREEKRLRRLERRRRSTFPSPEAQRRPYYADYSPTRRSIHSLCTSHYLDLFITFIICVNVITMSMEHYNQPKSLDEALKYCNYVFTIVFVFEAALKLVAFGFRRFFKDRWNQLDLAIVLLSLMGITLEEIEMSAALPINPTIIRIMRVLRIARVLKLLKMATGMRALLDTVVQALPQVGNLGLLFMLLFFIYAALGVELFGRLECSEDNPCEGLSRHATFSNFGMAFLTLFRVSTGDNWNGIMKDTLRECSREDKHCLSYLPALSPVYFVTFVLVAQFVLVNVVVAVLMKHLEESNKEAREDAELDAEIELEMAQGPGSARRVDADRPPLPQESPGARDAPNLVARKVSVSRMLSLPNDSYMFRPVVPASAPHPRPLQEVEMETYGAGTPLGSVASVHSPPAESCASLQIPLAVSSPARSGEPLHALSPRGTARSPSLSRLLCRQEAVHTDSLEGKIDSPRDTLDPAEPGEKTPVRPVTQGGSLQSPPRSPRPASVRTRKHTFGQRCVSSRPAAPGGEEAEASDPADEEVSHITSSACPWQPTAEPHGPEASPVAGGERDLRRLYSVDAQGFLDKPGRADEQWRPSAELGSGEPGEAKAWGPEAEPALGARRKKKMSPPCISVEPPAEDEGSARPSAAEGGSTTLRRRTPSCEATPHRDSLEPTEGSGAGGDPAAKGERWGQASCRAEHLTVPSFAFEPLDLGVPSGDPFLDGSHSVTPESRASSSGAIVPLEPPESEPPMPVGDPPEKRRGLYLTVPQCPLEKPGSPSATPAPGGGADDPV
# [7] = A549 cell cytotoxicity, dose response, cytotoxicity control, plate reader, cherry-pick, antagonist series (AID 743412); format: functional, cell-based
# [8] = blockade of melanocortin 4 receptor signaling – cell-based, plate reader, cherry pick, counter-screen for LGR2 antagonist project, dose response (AID 743444); format: functional;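 also: transfected HEK 293 cells stimulated with alpha-MSH peptide; potency of inhibitors of the alpha-MSH evoked signal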
# [9] = Vero E6 cell cytotoxicity, dose response, cytotoxicity control for non-replicating M. tuberculosis project, secondary assay (AID 492998); format: functional, VeroE6; settings: Vero C1008
# [10] = toxicity toward HepG2 liver cells – cell-based, plate reader, cherry-pick, antagonist series, cytotoxicity control, dose response (AID 743416); format: functional
# [11] = viability loss in HEK293 cells – cell-based, plate reader, cherry-picked samples, cytotoxicity control, dose response (AID 743446); format: functional
# cells = format: functional
# [12] = THP-1 cell cytotoxicity, dose response, cytotoxicity control for non-replicating M. tuberculosis project (AID 489025); format: functional
# [13] = Trypanosoma cruzi growth suppression in host cells – NIH3T3 host cells, beta-gal luminescence, confirmation (AID 2044); format: functional, cell-based;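 also: intracellular parasites grown in NIH/3T3 mouse fibroblasts as host cells; luminescent beta-galactosidase reporter signal from transgenic T. cruzi replicating inside host cells; inhibitors lower the luminescence signal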
# [14] = blockers of bursicon-stimulated LGR2 cAMP reporter – cell-based, HEK293, CRE-luciferase reporter, cherry pick, set 2, dose response (AID 743343); format: functional;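 also: transfected cells were stimulated with diluted bursicon conditioned medium after compound addition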
# [15] = HepG2 cell cytotoxicity, dose response, cytotoxicity control for non-replicating M. tuberculosis project (AID 489018); format: functional; settings: Mycobacterium tuberculosis
# [16] = NIH3T3 cell viability loss – ATP luminescence, mouse fibroblasts, counter-screen, dose response (AID 2010); format: functional, cell-based;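 also: cells exposed to compound for about 90 hours before reading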
# [17] = Luminescence Cell-Based Dose Retest to Confirm Inhibitors of Cancer Stem Cells. [Related pubchem assays (depositor defined):AID2717, AID2721]; format: functional; settings: Homo sapiens
# [18] = reduction of Shn3 3'UTR-driven luciferase in osteoblasts – cell-based, Clone20 osteoblasts, firefly luciferase, cherry-picked, dose response (AID 624132); format: functional;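 also: firefly luciferase luminescence from reporter carrying the Shn3 3'UTR in osteoblasts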
# [19] = loss of viability in HepG2 cells – cell-based, CellTiter-Glo, cherry-picked, cytotoxicity control for Shn3 inhibitor project, dose response (AID 624134); format: functional
# [20] = non-specific 3'UTR reporter inhibition in Clone20-Shn3RL – cell-based, Renilla luciferase, cherry-picked, counter-screen for Shn3 inhibitor project, dose response (AID 624133); format: functional
# [21] = HEK-293T cell viability reduction – luminescence, B-cell screen hits, cytotoxicity control for BCR NF-kB inhibitor project, dose response (AID 489021); format: functional, cell-based;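 also: HEK-293T cells carrying an NF-kB luciferase reporter; cells exposed to compound for about 14 hours before viability readout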
# [22] = HEK-293T viability loss after treatment – luminescence, T-cell screen hits, cytotoxicity control for TCR NF-kB inhibitor project, dose response (AID 489026); format: functional, cell-based;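 also: cells exposed to compound about 14 hours before the viability readout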
# BJ [23] = assay: BJ-TERT fibroblast viability loss – cell-based, RAS-independent, luminescence, dose response (AID 1933); format: functional; settings: Homo sapiens
# [24] = DRD fibroblast viability loss – cell-based, non-viral oncogenic, luminescence, dose response (AID 1934); format: functional; settings: Homo sapiens
# BJ [25] = assay: BJ-TERT-LT-ST fibroblast viability loss – cell-based, RAS-independent, luminescence, dose response (AID 1935); format: functional; settings: Homo sapiens;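 also: BJ fibroblasts immortalized with TERT plus LT and ST oncogenes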
# BJ [26] = assay: cells; format: functional, cell-based; settings: Homo sapiens
# INS1 = assay: INS-1E survival protection against cytokine death – cell-based, luminescence, retest, dose response (AID 449756); format: functional; settings: Rattus norvegicus;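 also: cell death triggered by IL-1 beta plus TNF-alpha plus IFN-gamma mixture; protective hits raise ATP signal compared with cytokine alone wells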
# HEK293 = assay: cells; settings: Homo sapiens;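 also: cells exposed to compound for 14 hours overnight before viability readout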
# Tumor necrosis factor = Tumor necrosis factor (Homo sapiens, UniProt P01375); assay: analog potency on TNFa NF-kB signaling – cell-based, revised, SAR follow-up (AID 2337); format: functional
# Sequence of Tumor necrosis factor (P01375 whole entry): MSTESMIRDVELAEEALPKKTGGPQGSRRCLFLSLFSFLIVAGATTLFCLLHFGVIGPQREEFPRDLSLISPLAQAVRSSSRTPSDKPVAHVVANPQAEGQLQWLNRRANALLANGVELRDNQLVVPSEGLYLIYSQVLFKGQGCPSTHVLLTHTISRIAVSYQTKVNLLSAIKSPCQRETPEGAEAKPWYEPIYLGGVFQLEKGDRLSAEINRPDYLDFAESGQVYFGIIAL
compound,measurement,setting,value
Cc1ccc(NC(=O)COC(=O)c2cc(-c3cccs3)nn2-c2ccccc2)cc1[N+](=O)[O-],IC50,[1],> 79.4 µM (inactive)
same,IC50,[2],> 79.4 µM (inactive)
same,IC50,[3],> 79.4 µM (inactive)
CC1=CC2=NC(=O)/C(=C\c3cc(C)n(-c4ccccc4)c3C)C(=N)N2O1,IC50,[4],> 64 µM (inactive)
C=CCn1c(S)nnc1-c1ccc2[nH]c(C)c(C)c2c1,IC50,[4],> 64 µM (inactive)
Cc1ccc(C)c(CN2C(=O)COc3ccc(C(=O)c4ccccc4C(=O)O)cc32)c1,IC50,[1],> 79.4 µM (inactive)
same,IC50,[2],> 79.4 µM (inactive)
same,IC50,[3],> 79.4 µM (inactive)
CN(C)S(=O)(=O)N1CCN(S(=O)(=O)c2ccc3ccccc3c2)CC1,IC50,[1],> 79.4 µM (inactive)
same,IC50,[2],> 79.4 µM (inactive)
same,IC50,[3],> 79.4 µM (inactive)
CC(=O)N1CCN(c2ccccc2NC(=O)c2ccc3ccccc3c2)CC1,EC50,[5],1.5 µM (active)
CCC(CC)c1nnc(NC(=O)C2COc3ccccc3O2)s1 (stereo unspecified),EC50,[6],3.85 µM (active)
Cc1ccc(S(=O)(=O)Nc2c(C)n(C)n(-c3ccccc3)c2=O)cc1C(=O)NCc1ccccn1,IC50,[4],> 64 µM (inactive)
Cc1cc([N+](=O)[O-])ccc1NC(=O)Nc1ccc(F)cc1F,AC50,[7],19.6 µM (active)
same,AC50,[8],30.1 µM (active)
same,CC50,[9],> 20 µM (active)
same,AC50,[10],18.8 µM (active)
same,AC50,[11],22.8 µM (active)
same,IC50,cells,46.7 µM (active)
same,CC50,[12],20.3 µM (active)
same,EC50,[13],4.36 µM (active)
same,AC50,[14],30.9 µM (active)
same,CC50,[15],> 20 µM (active)
same,EC50,[16],> 60 µM (not active)
CCOC(=O)C1(CCOc2ccccc2)CCN(Cc2cccn2-c2ncccn2)CC1,EC50,[5],1.88 µM (active)
c1ccc(-c2nc(NCc3ccco3)c3ccccc3n2)cc1,EC50,[5],3.76 µM (active)
COc1ccc2ccccc2c1C1CC(=O)N2CN(C)CSC2=C1C#N (stereo unspecified),IC50,[4],> 64 µM (inactive)
CCOc1ccc2[nH]c3c(N4CCN(c5ccccn5)CC4)ncnc3c2c1,EC50,[5],1.19 µM (active)
COc1ccc(/C=C2\Sc3ccc(C(=O)NCCN4CCCCCC4)cc3N(C)C2=O)cc1,CC50,[9],> 20 µM (active)
same,IC50,cells,19 µM (active)
same,CC50,[12],17.9 µM (active)
same,CC50,[15],14.3 µM (active)
CC(NCc1ccc(OCc2ccc(Cl)cc2)cc1)C(O)c1ccccc1 (stereo unspecified),AC50,[17],3.57 µM (active)
same,CC50,[9],14.6 µM (active)
same,IC50,cells,13.3 µM (active)
same,CC50,[12],9.8 µM (active)
same,AC50,[18],10.9 µM (active)
same,AC50,[19],14.6 µM (active)
same,AC50,[20],21.2 µM (active)
same,CC50,[15],15.5 µM (active)
COc1cccc(Cn2nnc(C(=O)Nc3cc(Cl)ccc3OC)c2N)c1,IC50,[21],> 80 µM (inactive)
same,AC50,[17],0.498 µM (active)
COc1ccccc1N1CCN(C(=O)C2c3ccccc3Oc3ccccc32)CC1,IC50,[22],> 80 µM (inactive)
same,EC50,BJ [23],2.13 µM (active)
same,EC50,[6],3.44 µM (active)
same,EC50,[24],2.06 µM (inconclusive)
same,EC50,BJ [25],1.65 µM (inconclusive)
same,EC50,BJ [26],40.2 µM (inconclusive)
CCn1cc(Br)c(C(=O)NC(=S)Nc2ccc(C(=O)OC)cc2)n1,IC50,[1],> 79.4 µM (inactive)
same,IC50,[2],> 79.4 µM (inactive)
same,IC50,[3],> 79.4 µM (inactive)
CCN(Cc1ccccc1)C(c1ccc(C(F)(F)F)cc1)c1nnnn1C(C)(C)C (stereo unspecified),EC50,[6],11.8 µM (active)
same,AC50,INS1,6.45 µM (active)
CC(=O)N1c2ccc(S(=O)(=O)N3CCN(c4ccc([N+](=O)[O-])cc4)CC3)cc2CC1C (stereo unspecified),IC50,HEK293,14.3 µM (active)
same,IC50,Tumor necrosis factor,3.27 µM (active)
